Reference: patent publication US8114406B2, “Peptides and their utility in modulation of behavior of cells expressing α3β1 integrins” (The United States of America as represented by the …, priority 1999, dated 2012)
Where two headings read alike, the source gives them in different places. Where no end group is shown, it is not given here.

Tests used:
[1] = system: MDA-MB-435 breast carcinoma cells; experiment: Inhibition of MDA-MB-435 cell adhesion to immobilized peptide 678 (microscopic adhesion assay); assay type: cell-based, human
Protocol: (§1) Adhesion assays of cells other than small cell lung carcinoma (SCLC)-Adhesion was measured on polystyrene or glass substrates coated with peptides or proteins as previously described (Guo et al., 1992). Peptides dissolved in PBS at 0.4 to 50 μM were incubated in polystyrene microliter plate wells overnight at 4° C. The wells were washed 3 times with distilled water. Adsorbed peptide was quantified using the BCA assay (Pierce Chemical) measuring absorbance at 570 and 630 nm as described by the supplier's protocol. The assay for adsorption was calibrated using purified peptide in solution as a standard. After blocking with 1% BSA in Dulbecco's PBS, adhesion assays were performed by adding cells suspended in DMEM (BAE cells) or medium 199 (human cells) containing 1 mg/ml BSA. Cell attachment and spreading was quantified microscopically.

[2] = system: OH1 SCLC cells; assay type: cell-based, human; conditions: 72 h
Protocol: Net, proliferation was determined by the CellTiter assay (Promega) and is presented as mean±SD, n=3. […] The cells were fixed and photographed using Nomarski optics. Bar=100 μm. […] Panel E: α3β1 Integrin ligands cooperate with EGF to inhibit OH1 cell proliferation. […] Net proliferation is presented as a percent of the -EGF control (mean±SD, n=3 for treated groups and n=6 for control groups).
Proteins and peptides were immobilized on Nunc Maxisorp 96 well plates by overnight incubation with the proteins or peptides dissolved in 50 μl of sterile Dulbecco's PBS. The supernatant fluid was removed, and the wells were incubated for 30 min. in DPBS containing 1% BSA. OH1 cells (1×10^4/well) were added in RPMI containing 15% FCS and incubated for 72 h at 37° in 5% CO2. For assessing inhibition by soluble proteins or peptides, OH1 cells were grown in suspension in Nunclon 96 well tissue culture plates using the same medium.

[3] = system: HDME cells; experiment: HDME cell spreading on coated substrates; assay type: cell-based, human
Protocol: Spreading was determined microscopically for cells with no additions, in the presence of 10 μM peptide 678, or in the presence of 30 μM of the control peptide 690. Results are presented as mean±SD, n=3. […] The percent spread cells was determined at 60 min.
as §1

[4] = system: MDA-MB-435 cells; experiment: MDA-MB-435 cell chemotaxis in modified Boyden chambers; assay type: cell-based, human; conditions: peptide in lower well; 7 h
Protocol: FIGS. 10A and 10B display the measurement of MDA-MB-435 cell chemotaxis. Panel A: Dose-dependence for stimulation of MDA-MB-435 cell motility by peptide 678 added to the lower well of a modified Boyden chamber. Cells migrated to the lower surface of an 8 μm pore polycarbonate filter were quantified microscopically after 7 h, mean±SD, n=3 for a representative experiment. […] Chemotaxis of untreated cells (striped bars) or cells treated with 10 nM IGF1 in the upper chamber (solid bars) was determined after 7 h and is presented as mean±S.D., n=3.

[5] = system: BAE cells; experiment: Scratch wound repair of BAE cells; assay type: cell-based, bovine; conditions: cells arrested using 5-fluorouracil; 24 h
Protocol: BAE cells were seeded at a density of 2×10^5 cells/well of 6 well tissue culture plates in complete growth medium supplemented with 10% FBS. After the cells formed a confluent cobblestone, cells were arrested using 10 μg/ml 5-fluorouracil for 48 h. Scrape wounds of 2 mm, width were made in the wells, and the cells were further incubated with medium containing 10% FBS, 10 μg/ml 5 fluorouracil and peptides 678, 709, or 690. Measurements of the distance between the wound margins were taken at 0 and 24 h, and the net migration is expressed as mean±SEM for triplicates.
The in vitro wound healing assay used was a slight modification of that described by Joyce et al. (Joyce et al., 1989). A confluent monolayer of BAE cells pretreated with 10 μg/ml 5-fluorouracil for […] were used in this assay. […] Mitosis of the BAE cells in the monolayers was inhibited by addition of 5-fluorouracil, so that the rate of wound closure was due solely to the migration of cells into the wound sites. The distances between the wound margins were measured as soon as the wound was made and 24 hours later using a grid incorporated into the eye piece of the microscope. All data represent the results obtained from three independent scratch wounds for each peptide tested.

[6] = system: MDA-MB-435 cells; experiment: MDA-MB-435 cell spreading on matrix proteins, inhibition by soluble peptide; assay type: cell-based, human; conditions: 10 μM peptide 678 (FIG. 4A)
Protocol: FIGS. 4A and 4B are graphs illustrating the inhibition of breast carcinoma cell spreading on matrix proteins by peptide 678. […] Cell spreading is presented as mean±SD, n=3. Panel B: Inhibition of MDA-MB-435 cell attachment to surfaces coated with 10 μM peptide 678 (●) or laminin peptide GD6 (◯) was measured in the presence of the indicated concentrations of peptide 678 added in solution.
as §1

[7] = system: HUVE cells; experiment: HUVE cell proliferation; assay type: cell-based, human
Protocol: Briefly, 100 μl of a 5×10^4 cell/ml suspension of BAE cells were seeded in triplicate into 96 well tissue culture plate in DMEM medium containing 1% FCS, 10 ng/ml of FGF2 and peptides at 1-40 μM concentrations. Cells were incubated for 72 h, and proliferation was measured using the Celltiter tetrazolium assay (Promega). […] Proliferation was determined at 72 h, and is presented as a percent of the control, mean±S.D., n=3 for experimental points and n=6 for control.
Cell proliferation was measured using the Cell-Titer colorimetric assay (Promega) as previously described (Vogel et al., 1993). A 100 μl volume of BAE cell suspension at 50,000 cells/ml in DMEM containing 1% FBS and supplemented with 10 ng/ml FGF2 was plated in triplicate in 96 well tissue culture plates either in the presence of peptides in solution or in wells that were pre-coated with 100 μl of the peptides at […] overnight and aspirated just before adding cells. Cells were grown for 72 hours at 37° C. in a humidified incubator with 5% CO2. HUVEC proliferation was measured by the same protocol but using medium 199 containing 5% FCS without heparin. HDME cell proliferation was measured in MCDB growth medium without heparin, VEGF, or FGF2.

[8] = system: HDME cells; experiment: HDME cell proliferation; assay type: cell-based, human
Protocol: (§2) Briefly, 100 μl of a 5×10^4 cell/ml suspension of BAE cells were seeded in triplicate into 96 well tissue culture plate in DMEM medium containing 1% FCS, 10 ng/ml of FGF2 and peptides at 1-40 μM concentrations. Cells were incubated for 72 h, and proliferation was measured using the Celltiter tetrazolium assay (Promega). […] Proliferation was determined at 72 h, and is presented as a percent of the control, mean±S.D., n=3 for experimental points and n=6 for control. […] FIG. 19E: HDME cell proliferation in MCDB growth medium with 5% FCS was determined in the presence of 10 ng/ml FGF2 and the indicated concentrations of TSP1 added in the medium (Δ) or immobilized on the substrate (●) or in wells coated with the indicated concentrations of peptide 678 (●).
(§3) Cell proliferation was measured using the Cell-Titer colorimetric assay (Promega) as previously described (Vogel et al., 1993). A 100 μl volume of BAE cell suspension at 50,000 cells/ml in DMEM containing 1% FBS and supplemented with 10 ng/ml FGF2 was plated in triplicate in 96 well tissue culture plates either in the presence of peptides in solution or in wells that were pre-coated with 100 μl of the peptides at 40° C. overnight and aspirated just before adding cells. Cells were grown for 72 hours at 37° C. in a humidified incubator with 5% CO2. […] HDME cell proliferation was measured in MCDB growth medium without heparin, VEGF, or FGF2.

[9] = system: MDA-MB-435 breast carcinoma cells
Protocol: MDA-MB-435 cell adhesion to microliter plate wells coated with 5 uM peptide 678 was determined in the presence of the indicated concentrations of soluble carboxamidomethyl-peptide 716 or peptide 716 covalently linked to FICOLL™ as previously described (Guo et al., 1997). After washing twice to remove unattached cells, adherent cells were quantified by detection of cellular hexosaminidase using p-nitrophenyl-N-acetylglucosaminide as substrate. Released p-nitrophenol was detected by absorbance at 405 nm. Results are mean+/−SD, n=3.
In this case, the adherent cells are quantified by detection of cellular hexosaminidase using p-nitrophenyl-N-acetylglucosaminidine as substrate. Released p-nitrophenol is detected by absorbance at 405 nm.

[10] = system: BAE cells; conditions: added in solution
Protocol: as §2, §3

[11] = system: BAE cells
Protocol: Direct adhesion of BAE cells to the adsorbed peptides or uncoated substrate (control) are presented as mean±SD, n=3. […] Two flasks of BAE cells were grown to confluence. One flask was harvested and replated in fresh medium at 25% confluency. Fresh medium was added at the same time to the second flask. After 16 h, cells from both flasks were dissociated using EDTA and adhesion was measured on substrates coated with 40 μg/ml TSP1, 10 μg/ml vitronectin, 20 μg/ml plasma fibronectin, or 5 μg/ml type I collagen. The percent spread cells after 60 min is presented as mean±SD, n=3 for a representative experiment.
Results are expressed as percent of the response for untreated cells, mean±S.D., n=3.

IC50 ([1]; Table 3, 5 μM peptide 678, read-out: IC50 (μM), inhibition of MDA-MB-435 cell adhesion to immobilized peptide 678): 3.5 µM
IC50 ([1]; microscopic adhesion assay, polystyrene coated with 5 μM peptide 678, peptides in solution, read-out: Inhibition of peptide 678 (IC50)): 3.5 µM
IC50 [2]: 6 µM
IC50 [9]: 15 µM
Sequence: FQGVLQNVRFVF [Peptide 678]
percent spread HDME cells on immobilized substrate ([3]; cells from sparse culture): 28%
percent spread HDME cells on immobilized substrate ([3]; cells harvested from a confluent monolayer): No spreading
concentration of maximal chemotactic response [4]: 10 µM
inhibition of BAE cell migration into the wound [5]: dose-dependent inhibitor
inhibition of MDA-MB-435 spreading on TSP1 and murine laminin-1/entactin [6]: strongly inhibited
inhibition of MDA-MB-435 spreading on fibronectin or type IV collagen [6]: did not inhibit
HUVE cell proliferation, peptide in solution ([7]; added in solution): significantly inhibited
HUVE cell proliferation on immobilized peptide ([7]; immobilized on the substrate): increased their proliferation
HDME cell proliferation after plating on immobilized substance [8]: enhancement
inhibition of BAE cell proliferation [10]: inhibited
inhibition of BAE cell spreading on fibronectin or vitronectin substrates [11]: did not inhibit
inhibition of BAE spreading on fibronectin ([11]; 30 μM (FIG. 12)): did not inhibit
inhibition of density-dependent BAE spreading on intact TSP1 and the TSP1 peptide ([11]; peptide added in solution): inhibited
endothelial cell attachment on immobilized peptide ([11]; peptides adsorbed at 10 μM (FIG. 11A)): attached specifically
